Tested on: 947758-054-R-J2-PDC spheroid growth, percent test/control
Assay: Anticancer human tumor 947758-054-R-J2-PDC patient-derived colon adenocarcinoma cell line growth inhibition [CLK]
Settings: spheroids with HUVEC and MSC; for IC50: curve of first compound; for viability, T/C: stronger effect = lower value
Procedure, shortened: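 Patient-derived tumor cells grown as complex spheroids with HUVEC endothelial cells and mesenchymal stem cells, treated with drug combinations. Concentrations descend in half-log steps from near clinical Cmax, or from 10 microM if Cmax unknown.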
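Also: spheroids exposed to compounds for one week before readout.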
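For viability, T/C in this document: 100% = DMSO vehicle control wells.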

CC(C)CC(NC(=O)C(Cc1ccccc1)NC(=O)c1cnccn1)B(O)O (centres undefined) + CN1CCN(c2cc(C(=O)Nc3cc4cc(-c5cnn(C)c5)ccc4cn3)ccn2)CC1
IC50 (second compound 0.0316 µM): 1.92 nM
IC50 (second compound 0.1 µM): 2.41 nM
IC50 (second compound 0.316 µM): < 0.949 nM
IC50 (second compound 1 µM): < 0.949 nM
IC50 (second compound 3.16 µM): < 0.949 nM
IC50 (second compound 10 µM): < 0.949 nM
viability, T/C (second compound 0.0316 µM, first compound 0.000949 µM): 121%
viability, T/C (second compound 0.0316 µM, first compound 0.003 µM): 5.43%
viability, T/C (second compound 0.0316 µM, first compound 0.00949 µM): 0.78%
viability, T/C (second compound 0.0316 µM, first compound 0.03 µM): 0.27%
viability, T/C (second compound 0.0316 µM, first compound 0.0949 µM): 0.29%
viability, T/C (second compound 0.0316 µM, first compound 0.3 µM): 0.27%
viability, T/C (second compound 0.1 µM, first compound 0.000949 µM): 229%
viability, T/C (second compound 0.1 µM, first compound 0.003 µM): 7.59%
viability, T/C (second compound 0.1 µM, first compound 0.00949 µM): 0.31%
viability, T/C (second compound 0.1 µM, first compound 0.03 µM): 0.29%
viability, T/C (second compound 0.1 µM, first compound 0.0949 µM): 0.32%
viability, T/C (second compound 0.1 µM, first compound 0.3 µM): 0.3%
viability, T/C (second compound 0.316 µM, first compound 0.000949 µM): 1.38%
viability, T/C (second compound 0.316 µM, first compound 0.003 µM): 0.21%
viability, T/C (second compound 0.316 µM, first compound 0.00949 µM): 0.22%
viability, T/C (second compound 0.316 µM, first compound 0.03 µM): 0.22%
viability, T/C (second compound 0.316 µM, first compound 0.0949 µM): 0.2%
viability, T/C (second compound 0.316 µM, first compound 0.3 µM): 0.23%
viability, T/C (second compound 1 µM, first compound 0.000949 µM): 0.14%
viability, T/C (second compound 1 µM, first compound 0.003 µM): 0.15%
viability, T/C (second compound 1 µM, first compound 0.00949 µM): 0.15%
viability, T/C (second compound 1 µM, first compound 0.03 µM): 0.16%
viability, T/C (second compound 1 µM, first compound 0.0949 µM): 0.18%
viability, T/C (second compound 1 µM, first compound 0.3 µM): 0.15%
viability, T/C (second compound 3.16 µM, first compound 0.000949 µM): 0.21%
viability, T/C (second compound 3.16 µM, first compound 0.003 µM): 0.12%
viability, T/C (second compound 3.16 µM, first compound 0.00949 µM): 0.12%
viability, T/C (second compound 3.16 µM, first compound 0.03 µM): 0.13%
viability, T/C (second compound 3.16 µM, first compound 0.0949 µM): 0.21%
viability, T/C (second compound 3.16 µM, first compound 0.3 µM): 2.33%
viability, T/C (second compound 10 µM, first compound 0.000949 µM): 0.34%
viability, T/C (second compound 10 µM, first compound 0.003 µM): 0.18%
viability, T/C (second compound 10 µM, first compound 0.00949 µM): 1.25%
viability, T/C (second compound 10 µM, first compound 0.03 µM): 0.16%
viability, T/C (second compound 10 µM, first compound 0.0949 µM): 0.21%
viability, T/C (second compound 10 µM, first compound 0.3 µM): 1.68%

O=C(c1cc(Cc2n[nH]c(=O)c3ccccc23)ccc1F)N1CCN(C(=O)C2CC2)CC1 + CN1CCN(c2cc(C(=O)Nc3cc4cc(-c5cnn(C)c5)ccc4cn3)ccn2)CC1
IC50 (second compound 0.0316 µM): > 10000 nM
IC50 (second compound 0.1 µM): > 10000 nM
IC50 (second compound 0.316 µM): < 31.6 nM
IC50 (second compound 1 µM): < 31.6 nM
IC50 (second compound 3.16 µM): < 31.6 nM
IC50 (second compound 10 µM): < 31.6 nM
viability, T/C (second compound 0.0316 µM, first compound 0.0316 µM): 137%
viability, T/C (second compound 0.0316 µM, first compound 0.1 µM): 108%
viability, T/C (second compound 0.0316 µM, first compound 0.316 µM): 127%
viability, T/C (second compound 0.0316 µM, first compound 1 µM): 111%
viability, T/C (second compound 0.0316 µM, first compound 3.16 µM): 139%
viability, T/C (second compound 0.0316 µM, first compound 10 µM): 222%
viability, T/C (second compound 0.1 µM, first compound 0.0316 µM): 173%
viability, T/C (second compound 0.1 µM, first compound 0.1 µM): 187%
viability, T/C (second compound 0.1 µM, first compound 0.316 µM): 179%
viability, T/C (second compound 0.1 µM, first compound 1 µM): 180%
viability, T/C (second compound 0.1 µM, first compound 3.16 µM): 206%
viability, T/C (second compound 0.1 µM, first compound 10 µM): 119%
viability, T/C (second compound 0.316 µM, first compound 0.0316 µM): 3.05%
viability, T/C (second compound 0.316 µM, first compound 0.1 µM): 3.52%
viability, T/C (second compound 0.316 µM, first compound 0.316 µM): 3.12%
viability, T/C (second compound 0.316 µM, first compound 1 µM): 2.9%
viability, T/C (second compound 0.316 µM, first compound 3.16 µM): 2.97%
viability, T/C (second compound 0.316 µM, first compound 10 µM): 2.81%
viability, T/C (second compound 1 µM, first compound 0.0316 µM): 0.13%
viability, T/C (second compound 1 µM, first compound 0.1 µM): 0.13%
viability, T/C (second compound 1 µM, first compound 0.316 µM): 0.15%
viability, T/C (second compound 1 µM, first compound 1 µM): 0.09%
viability, T/C (second compound 1 µM, first compound 3.16 µM): 0.15%
viability, T/C (second compound 1 µM, first compound 10 µM): 0.18%
viability, T/C (second compound 3.16 µM, first compound 0.0316 µM): 0.14%
viability, T/C (second compound 3.16 µM, first compound 0.1 µM): 0.24%
viability, T/C (second compound 3.16 µM, first compound 0.316 µM): 0.22%
viability, T/C (second compound 3.16 µM, first compound 1 µM): 0.18%
viability, T/C (second compound 3.16 µM, first compound 3.16 µM): 0.73%
viability, T/C (second compound 3.16 µM, first compound 10 µM): 0.27%
viability, T/C (second compound 10 µM, first compound 0.0316 µM): 0.31%
viability, T/C (second compound 10 µM, first compound 0.1 µM): 0.36%
viability, T/C (second compound 10 µM, first compound 0.316 µM): 0.95%
viability, T/C (second compound 10 µM, first compound 1 µM): 0.29%
viability, T/C (second compound 10 µM, first compound 3.16 µM): 0.44%
viability, T/C (second compound 10 µM, first compound 10 µM): 0.35%
